Measurements taken from patent US10206902B2, “Mono- or di-substituted indoles as dengue viral replication inhibitors” (priority 2014, dated 2019).

Assay: Chiral stability of Enantiomer 1A at pH 7.4 (ee% by chiral SFC)
Format: physicochemical
Conditions: buffered solution pH 7.4, 5 μM
Method: The chiral stability of Enantiomer 1A (R═OMe) was evaluated by determination of the enantiomeric excess (ee %) after incubation for 24 h and 48 h in a buffered solution at pH 7.4 at 40° C. and 60° C. To assess the influence of the methoxy-substituent of Enantiomer 1A (R═OMe) on the stability against racemization, the chiral stability of Enantiomer 1′A (R═H) was tested under the same conditions.
To this end, 5 μM buffered (pH=7.4) solutions of 1A and 1′A were prepared by mixing 25 μL of a 100 μM solution of 1A or 1′A in DMSO with 475 μL aqueous buffer pH 7.4. Samples were taken 24 h and 48 h after incubation at 40° C. and 60° C. The analytical samples were analyzed by Chiral SFC (MS detection) and the chiral purity was expressed as the enantiomeric excess (ee %=% enantiomer A−% enantiomer B).

## COc1cc(NC(C(=O)c2c[nH]c3cc(F)ccc23)c2ccc(F)cc2OC)cc(OCCO)c1 (single isomer, unassigned) [Compound 1A, 1-(6-fluoro-1H-indol-3-yl)-2-(4-fluoro-2-methoxyphenyl)-2-((3-(2-hydroxyethoxy)-5-methoxyphenyl)amino)ethanone]
40° C., 24 h
  ee% (enantiomeric excess): 100%
40° C., 48 h
  ee% (enantiomeric excess): 100%
60° C., 24 h
  ee% (enantiomeric excess): 100%
60° C., 48 h
  ee% (enantiomeric excess): 96%
